Data as given in patent US20240132485A1, “HETEROCYCLIC CULLIN RING UBIQUITIN LIGASE COMPOUNDS AND USES THEREOF” (CEMM - FORSCHUNGSZENTRUM FÜR MOLEKULARE MEDIZIN GMBH, priority 2020, published 2024).
pEC50: −log10 of the molar value.

What was measured:
[1] = molecular target: T1, DDB1-CDK12/Cyclin K ternary complex (Homo sapiens, UniProt Q16531+Q9NYV4); assay: NanoBRET fold-change assay (HaloTag_CDK12 / NanoLuc_DDB1 in HEK293T); assay type: cell-based; conditions: 10 μM compound, 10 minutes
T1 construct: expressed in transfected cells; host or cells: HEK293T wildtype cells, transient PEI transfection
In short: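 HEK293T cells transiently co-transfected with HaloTag_CDK12 and NanoLuc_DDB1, labelled overnight with 100 nM HaloTag 618 ligand (DMSO no-ligand control), then treated with compound at 10 μM final for 10 min at room temperature. BRET read as 460 nm donor and 647 nm acceptor emission after Nano-Glo substrate; reported as fold change.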

[2] = molecular target: T1, DDB1-CDK12/Cyclin K ternary complex; assay: NanoBRET EC50 assay (HaloTag_CDK12 / NanoLuc_DDB1 in HEK293T); assay type: cell-based; conditions: for NanoBRET EC50 Activity Class / pEC50: 10-point titration from 20 μM, HEK293T; for pEC50: read-out: NanoBRET EC50 Activity Class
Experimental: This assay measures the interaction/recruitment of CDK12/Cyclin K to DDB1, mechanistically validating the molecular glue pharmacology.
HEK293T wildtype cells are seeded 800 k cells/well (DMEM+10% FBS+1% PS) in a 6-well plate and allowed to attach for ˜7 hours followed by a transient transfection of 1.5 μg HaloTag_CDK12 Plasmid [Table 1] and 0.15 μg NanoLuc_DDB1 plasmid [Table 1] per well using PEI. Cells are incubated at 37° C., 5% CO2, harvested after 24 hours and resuspended in assay media (Opti-MEM Reduced serum media, no phenol red, 4% FBS, 1% PS). Cells are adjusted to 2.3×10^5 cells/ml and treated with HaloTag 618 Ligand at 100 nM or DMSO. 8000 cells are seeded per well in triplicates per compound in a white-walled 384-well plate, one negative control treated with DMSO instead of HaloTag 618 Ligand is seeded in triplicates and the 384-well plate is incubated at 37° C., 5% CO2 overnight. Compound stock solutions are prepared in Opti-MEM−/− (Opti-MEM I Reduced serum media, no phenol red) at 8× and used to treat the cells at a final concentration of 1× at 10 μM. Cells and compounds are incubated for 10 minutes at room temperature followed by addition of NanoBRET Nano-Glo substrate following manufacturer's protocols. The plate is shaken for 30 sec followed by immediate measurement of donor emission (NanoBRET Blue at 460 nm) and acceptor emission (BRET Deep Red at 647 nm) for 0.5 s.
The assay setup is identical to “NanoBRET fold change experimental setup”. Instead of treating cells in […] with 10 μM compound, a 10-point titration starting at 20 μM is performed with a dilution factor of 1:4, covering α range of 20000 nM-0.076 nM.

[3] = system: KBM7 cells (wild-type); assay: KBM7 CTG EC50 assay (UBE2M wild-type); assay type: cell-based, human; conditions: for pEC50: Homo sapiens, KBM-7, 72 h incubation, CellTiter-Glo, read-out: KBM7 CTG EC50 (UBE2M wild-type) Activity Class; for Ratio UBE2M WT to KO: ratio of anti-proliferative activity in KBM7 wild-type versus UBE2M knock-out cells (fold); for dependence of cytotoxicity on UBE2M, in words: KBM7 wild-type versus UBE2M mutant
In short: (§1)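 Wild-type KBM7 cells, or KBM7 cells with a hypomorphic UBE2M mutation that impairs Cullin-RING ligase activity, were treated for 72 h with compounds in a 10-point, 1:4 titration (0 to 20 μM). Viability was read by CellTiter-Glo 2.0 luminescence.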

[4] = system: KBM7 cells harboring a hypomorphic UBE2M mutation; assay: KBM7 CTG EC50 assay (UBE2M knock-out); assay type: cell-based; conditions: Homo sapiens, KBM-7; 72 h incubation, CellTiter-Glo; read-out: KBM7 CTG EC50 (UBE2M knock-out) Activity Class
In short: as §1

[5] = system: CCNK; assay: NanoLuc-CCNK degradation assay (HEK293T_Nluc_CCNK-tagged cells); assay type: cell-based; conditions: for NanoLuc-CCNK degradation DC50 Activity Class / DC50: 4 h incubation, HEK293T_Nluc_CCNK-tagged cells; for DC50: read-out: NanoLuc-CCNK degradation DC50 Activity Class
In short: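 HEK293T cells with nanoluciferase knocked in at the N-terminus of endogenous CCNK (CRISPR) exposed to a 10-point titration (0 to 10 μM, 1:4) in Opti-MEM I + 4% FBS for 4 h. Nano-Glo substrate then added and luminescence read as a measure of Cyclin K abundance.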

T1 sequence (Q9NYV4 whole entry): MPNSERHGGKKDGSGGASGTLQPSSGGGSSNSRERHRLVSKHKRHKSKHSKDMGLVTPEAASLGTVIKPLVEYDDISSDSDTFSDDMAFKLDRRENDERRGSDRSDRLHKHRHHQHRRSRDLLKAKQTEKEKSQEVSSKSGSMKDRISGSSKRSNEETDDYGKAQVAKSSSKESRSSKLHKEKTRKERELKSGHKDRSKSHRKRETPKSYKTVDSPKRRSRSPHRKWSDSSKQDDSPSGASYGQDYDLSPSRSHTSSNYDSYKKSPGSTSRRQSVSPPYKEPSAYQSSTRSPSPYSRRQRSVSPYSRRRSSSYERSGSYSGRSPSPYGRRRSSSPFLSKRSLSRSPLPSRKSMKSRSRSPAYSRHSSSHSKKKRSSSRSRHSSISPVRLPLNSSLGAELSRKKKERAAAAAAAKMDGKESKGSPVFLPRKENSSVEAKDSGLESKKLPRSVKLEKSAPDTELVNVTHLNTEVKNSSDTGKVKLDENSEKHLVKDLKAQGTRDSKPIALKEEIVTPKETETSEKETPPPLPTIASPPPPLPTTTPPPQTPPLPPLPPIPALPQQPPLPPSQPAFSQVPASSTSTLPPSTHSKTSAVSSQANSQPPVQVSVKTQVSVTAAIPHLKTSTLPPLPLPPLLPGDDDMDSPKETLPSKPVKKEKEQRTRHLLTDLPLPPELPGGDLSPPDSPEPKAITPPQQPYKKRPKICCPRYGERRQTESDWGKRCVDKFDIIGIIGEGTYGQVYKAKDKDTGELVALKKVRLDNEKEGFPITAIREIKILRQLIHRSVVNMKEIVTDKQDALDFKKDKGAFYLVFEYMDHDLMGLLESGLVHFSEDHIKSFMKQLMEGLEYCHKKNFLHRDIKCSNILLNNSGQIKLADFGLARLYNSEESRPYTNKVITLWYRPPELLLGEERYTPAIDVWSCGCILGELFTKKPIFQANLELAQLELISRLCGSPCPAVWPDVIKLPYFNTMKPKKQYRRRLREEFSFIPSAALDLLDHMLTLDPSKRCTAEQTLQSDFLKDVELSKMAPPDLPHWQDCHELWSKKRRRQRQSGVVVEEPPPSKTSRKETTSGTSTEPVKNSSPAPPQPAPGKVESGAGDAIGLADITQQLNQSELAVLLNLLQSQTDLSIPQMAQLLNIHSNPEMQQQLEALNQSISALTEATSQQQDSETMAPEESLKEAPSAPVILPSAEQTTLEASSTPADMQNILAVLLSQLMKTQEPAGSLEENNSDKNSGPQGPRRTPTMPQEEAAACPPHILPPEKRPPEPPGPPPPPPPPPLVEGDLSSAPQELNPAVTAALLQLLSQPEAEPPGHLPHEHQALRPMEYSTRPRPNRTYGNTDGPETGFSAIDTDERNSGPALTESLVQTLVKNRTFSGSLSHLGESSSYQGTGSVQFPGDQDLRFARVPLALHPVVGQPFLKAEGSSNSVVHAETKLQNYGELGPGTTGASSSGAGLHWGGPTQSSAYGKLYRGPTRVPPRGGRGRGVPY
T1 sequence (Q16531 whole entry): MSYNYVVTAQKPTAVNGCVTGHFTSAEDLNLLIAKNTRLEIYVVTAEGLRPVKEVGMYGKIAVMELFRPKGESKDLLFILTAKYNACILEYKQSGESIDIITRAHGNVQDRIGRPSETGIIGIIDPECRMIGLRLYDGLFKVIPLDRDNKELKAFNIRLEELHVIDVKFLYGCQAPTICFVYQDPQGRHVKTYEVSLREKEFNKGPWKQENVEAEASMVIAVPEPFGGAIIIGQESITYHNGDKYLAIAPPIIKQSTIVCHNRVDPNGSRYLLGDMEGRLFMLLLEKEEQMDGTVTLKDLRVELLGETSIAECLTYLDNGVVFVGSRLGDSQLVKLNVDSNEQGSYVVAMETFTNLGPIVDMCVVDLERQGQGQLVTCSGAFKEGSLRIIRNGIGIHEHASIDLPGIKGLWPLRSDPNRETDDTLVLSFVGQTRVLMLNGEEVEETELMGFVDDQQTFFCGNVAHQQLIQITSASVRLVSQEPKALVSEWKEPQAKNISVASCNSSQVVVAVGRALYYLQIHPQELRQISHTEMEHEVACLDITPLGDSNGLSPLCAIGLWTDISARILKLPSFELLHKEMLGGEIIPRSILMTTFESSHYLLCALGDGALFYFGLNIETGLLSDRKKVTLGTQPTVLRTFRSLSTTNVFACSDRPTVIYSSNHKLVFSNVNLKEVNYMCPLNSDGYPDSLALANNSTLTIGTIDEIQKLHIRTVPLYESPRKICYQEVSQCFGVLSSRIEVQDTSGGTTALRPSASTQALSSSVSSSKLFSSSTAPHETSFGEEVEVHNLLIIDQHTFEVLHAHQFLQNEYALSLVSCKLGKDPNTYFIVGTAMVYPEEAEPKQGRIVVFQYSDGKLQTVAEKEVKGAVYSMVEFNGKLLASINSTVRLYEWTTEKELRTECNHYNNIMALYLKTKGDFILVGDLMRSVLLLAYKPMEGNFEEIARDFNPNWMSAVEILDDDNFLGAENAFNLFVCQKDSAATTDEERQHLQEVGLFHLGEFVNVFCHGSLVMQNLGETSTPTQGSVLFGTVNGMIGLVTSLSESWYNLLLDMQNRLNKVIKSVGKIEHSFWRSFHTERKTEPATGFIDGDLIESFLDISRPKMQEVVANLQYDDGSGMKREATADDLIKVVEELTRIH
T1 sequence (O75909 whole entry partner): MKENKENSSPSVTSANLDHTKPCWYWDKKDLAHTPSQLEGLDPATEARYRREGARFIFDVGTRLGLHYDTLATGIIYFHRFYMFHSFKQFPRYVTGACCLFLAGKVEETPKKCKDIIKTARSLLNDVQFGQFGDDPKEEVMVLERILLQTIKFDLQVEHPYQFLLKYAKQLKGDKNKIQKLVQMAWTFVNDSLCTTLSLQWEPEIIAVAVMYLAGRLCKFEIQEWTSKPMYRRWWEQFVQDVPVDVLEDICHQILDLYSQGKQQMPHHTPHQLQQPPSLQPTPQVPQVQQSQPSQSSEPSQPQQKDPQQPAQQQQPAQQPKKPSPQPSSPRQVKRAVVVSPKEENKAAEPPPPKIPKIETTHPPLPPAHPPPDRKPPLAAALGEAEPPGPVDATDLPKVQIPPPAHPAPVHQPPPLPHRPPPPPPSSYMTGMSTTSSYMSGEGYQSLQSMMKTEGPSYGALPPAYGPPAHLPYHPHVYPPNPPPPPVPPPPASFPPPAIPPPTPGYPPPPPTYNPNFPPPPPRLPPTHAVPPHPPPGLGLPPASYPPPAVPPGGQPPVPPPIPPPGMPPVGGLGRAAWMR

Cc1ccc2c(CC(=O)Nc3cc(C(F)(F)F)[nH]n3)coc2c1C [Example 3-48, 2-(6,7-dimethylbenzofuran-3-yl)-N-(5-(trifluoromethyl)-1H-pyrazol-3-yl)acetamide]
NanoBRET fold-change Activity Class [1]: B (3-4 fold increase) | NanoBRET EC50 Activity Class [2]: B (0.50 μM≤EC50≤0.25 μM) | pEC50 [3]: ≥ 6.60 | Ratio UBE2M WT to KO [3]: 15.7 | pEC50 [4]: 6.00 to 6.30 | NanoLuc-CCNK degradation DC50 Activity Class [5]: B (0.50 μM≤DC50<0.10 μM)

Cc1ccc(NC(=O)Cc2coc3c(C)c(C)ccc23)nc1 [Example 3-50, 2-(6,7-dimethylbenzofuran-3-yl)-N-(5-methylpyridin-2-yl)acetamide]
NanoBRET fold-change Activity Class [1]: A (greater than 4-fold increase) | pEC50 [2]: ≥ 6.60 | pEC50 [3]: 6.30 to 6.60 | Ratio UBE2M WT to KO [3]: >10 | pEC50 [4]: < 5.00 | NanoLuc-CCNK degradation DC50 Activity Class [5]: D (10 μM≤DC50<1.0 μM)

Cc1ccc2c(CC(=O)Nc3ccc(C(C)C)cn3)coc2c1C [Example 3-51, 2-(6,7-dimethylbenzofuran-3-yl)-N-(5-isopropylpyridin-2-yl)acetamide]
NanoBRET fold-change Activity Class [1]: B (3-4 fold increase) | NanoBRET EC50 Activity Class [2]: C (1.0 μM≤EC50<0.50 μM) | pEC50 [3]: 5.00 to 6.00 | Ratio UBE2M WT to KO [3]: >8 | pEC50 [4]: < 5.00 | NanoLuc-CCNK degradation DC50 Activity Class [5]: D (10 μM≤DC50<1.0 μM)

O=C(CCn1cnc2ccccc2c1=O)Nc1ncc(C(F)(F)F)s1 [Example 3-63, 3-(4-oxoquinazolin-3(4H)-yl)-N-(5-(trifluoromethyl)thiazol-2-yl)propanamide]
NanoBRET fold-change Activity Class [1]: B (3-4 fold increase) | pEC50 [2]: < 5.00 | pEC50 [3]: ≥ 6.60 | Ratio UBE2M WT to KO [3]: 13.9 | pEC50 [4]: 5.00 to 6.00 | NanoLuc-CCNK degradation DC50 Activity Class [5]: B (0.50 μM≤DC50<0.10 μM)

Cc1ccc2c(CC(=O)Nc3ccc(C4CC4)cn3)coc2c1C [Example 3-52, N-(5-cyclopropylpyridin-2-yl)-2-(6,7-dimethylbenzofuran-3-yl)acetamide]
NanoBRET fold-change Activity Class [1]: A (greater than 4-fold increase) | pEC50 [2]: ≥ 6.60 | pEC50 [3]: ≥ 6.60 | Ratio UBE2M WT to KO [3]: 27.0 | pEC50 [4]: 5.00 to 6.00 | NanoLuc-CCNK degradation DC50 Activity Class [5]: B (0.50 μM≤DC50<0.10 μM)

CC(C(=O)Nc1ncc(C(F)(F)F)s1)c1cnc2ccccc2c1 (centres unmarked) [Example 3-35, 2-(quinolin-3-yl)-N-(5-(trifluoromethyl)thiazol-2-yl)propanamide]
NanoBRET fold-change Activity Class [1]: A (greater than 4-fold increase) | pEC50 [2]: ≥ 6.60 | pEC50 [3]: ≥ 6.60 | Ratio UBE2M WT to KO [3]: 15.1 | pEC50 [4]: ≥ 6.60 | DC50 [5]: ≤ 100 nM

Cc1cc(NC(=O)Cc2coc3c(C)c(C)ccc23)n[nH]1 [Example 3-44, 2-(6,7-dimethylbenzofuran-3-yl)-N-(5-methyl-1H-pyrazol-3-yl)acetamide]
NanoBRET fold-change Activity Class [1]: A (greater than 4-fold increase) | pEC50 [2]: ≥ 6.60 | pEC50 [3]: ≥ 6.60 | Ratio UBE2M WT to KO [3]: 34.4 | pEC50 [4]: 6.30 to 6.60 | NanoLuc-CCNK degradation DC50 Activity Class [5]: B (0.50 μM≤DC50<0.10 μM)

COc1cc2ncn(CCC(=O)Nc3ncc(C(F)(F)F)s3)c(=O)c2cc1OC [Example 3-64, 3-(6,7-dimethoxy-4-oxoquinazolin-3(4H)-yl)-N-(5-(trifluoromethyl)thiazol-2-yl)propanamide]
NanoBRET fold-change Activity Class [1]: A (greater than 4-fold increase) | pEC50 [2]: < 5.00 | pEC50 [3]: ≥ 6.60 | Ratio UBE2M WT to KO [3]: 21.9 | pEC50 [4]: 6.00 to 6.30 | DC50 [5]: ≤ 100 nM

Cc1ccc2c(CC(=O)Nc3cc(Br)[nH]n3)coc2c1C [Example 3-47, N-(5-bromo-1H-pyrazol-3-yl)-2-(6,7-dimethylbenzofuran-3-yl)acetamide]
NanoBRET fold-change Activity Class [1]: A (greater than 4-fold increase) | NanoBRET EC50 Activity Class [2]: B (0.50 μM≤EC50≤0.25 μM) | pEC50 [3]: ≥ 6.60 | Ratio UBE2M WT to KO [3]: 15.7 | pEC50 [4]: 6.00 to 6.30 | DC50 [5]: ≤ 100 nM

O=C(Cc1cn2cc(Cl)ccc2n1)Nc1cc(C2CC2)[nH]n1 [Example 3-66, N-(5-cyclopropyl-1H-pyrazol-3-yl)-2-(6-chloroimidazo[1,2-a]pyridin-2-yl)acetamide]
NanoBRET fold-change Activity Class [1]: A (greater than 4-fold increase) | activity in NanoBRET assay (ternary complex formation), in words [2]: particularly exceptional | pEC50 [2]: ≥ 6.60 | pEC50 [3]: ≥ 6.60 | dependence of cytotoxicity on UBE2M, in words [3]: very strong dependence | Ratio UBE2M WT to KO [3]: 388.0 | pEC50 [4]: ≥ 6.60 | activity in NanoLuc CCNK degradation assay, in words [5]: particularly exceptional | DC50 [5]: ≤ 100 nM

Cc1ccc2c(CC(=O)Nc3cc(C(C)C)[nH]n3)coc2c1C [Example 3-45, 2-(6,7-dimethylbenzofuran-3-yl)-N-(5-isopropyl-1H-pyrazol-3-yl)acetamide]
NanoBRET fold-change Activity Class [1]: A (greater than 4-fold increase) | NanoBRET EC50 Activity Class [2]: B (0.50 μM≤EC50≤0.25 μM) | pEC50 [3]: ≥ 6.60 | dependence of cytotoxicity on UBE2M, in words [3]: extremely high dependence | Ratio UBE2M WT to KO [3]: 18.6 | pEC50 [4]: ≥ 6.60 | DC50 [5]: ≤ 100 nM

O=C(Cc1cn2cc(F)ccc2n1)Nc1ncc(C2CC2)s1 [Example 3-43, N-(5-cyclopropylthiazol-2-yl)-2-(6-fluoroimidazo[1,2-a]pyridin-2-yl)acetamide]
NanoBRET fold-change Activity Class [1]: A (greater than 4-fold increase) | activity in NanoBRET assay (ternary complex formation), in words [2]: exceptional | pEC50 [2]: ≥ 6.60 | pEC50 [3]: ≥ 6.60 | activity in KBM7 cytotoxicity assay, in words ([3]; KBM7): extremely potent activity | pEC50 [4]: ≥ 6.60 | activity in NanoLuc CCNK degradation assay, in words [5]: exceptional | DC50 [5]: ≤ 100 nM

O=C(Cc1cn2cc(F)ccc2n1)Nc1ncc(C(F)(F)F)s1 [Example 3-5, 2-(6-fluoroimidazo[1,2-a]pyridin-2-yl)-N-(5-(trifluoromethyl)thiazol-2-yl)acetamide]
NanoBRET fold-change Activity Class [1]: B (3-4 fold increase) | activity in NanoBRET assay (ternary complex formation), in words [2]: particularly exceptional | NanoBRET EC50 Activity Class [2]: C (1.0 μM≤EC50<0.50 μM) | pEC50 [3]: ≥ 6.60 | Ratio UBE2M WT to KO [3]: 142 | pEC50 [4]: 6.30 to 6.60 | activity in NanoLuc CCNK degradation assay, in words [5]: particularly exceptional | DC50 [5]: ≤ 100 nM

Cc1ccc2c(CC(=O)Nc3ncc(Cl)s3)coc2c1C [Example 3-3, N-(5-chlorothiazol-2-yl)-2-(6,7-dimethylbenzofuran-3-yl)acetamide]
NanoBRET fold-change Activity Class [1]: D (1-2 fold increase) | pEC50 [2]: < 5.00 | pEC50 [3]: ≥ 6.60 | Ratio UBE2M WT to KO [3]: 23.5 | pEC50 [4]: 5.00 to 6.00 | DC50 [5]: > 10000 nM

Cc1cc(N2CC(C(=O)Nc3ncc(C(F)(F)F)s3)CC2=O)ccc1F (centres unmarked) [Example 3-17, 1-(4-fluoro-3-methylphenyl)-5-oxo-N-(5-(trifluoromethyl)thiazol-2-yl)pyrrolidine-3-carboxamide]
NanoBRET fold-change Activity Class [1]: A (greater than 4-fold increase) | NanoBRET EC50 Activity Class [2]: B (0.50 μM≤EC50≤0.25 μM) | pEC50 [3]: ≥ 6.60 | Ratio UBE2M WT to KO [3]: 17.0 | pEC50 [4]: 6.30 to 6.60 | DC50 [5]: ≤ 100 nM

O=C(Cc1cn2cc(F)ccc2n1)Nc1cc(C(F)(F)F)[nH]n1 [Example 3-59, 2-(6-fluoroimidazo[1,2-a]pyridin-2-yl)-N-(5-(trifluoromethyl)-1H-pyrazol-3-yl)acetamide]
NanoBRET fold-change Activity Class [1]: C (2-3 fold increase) | pEC50 [2]: < 5.00 | pEC50 [3]: 6.30 to 6.60 | Ratio UBE2M WT to KO [3]: >10 | pEC50 [4]: < 5.00 | DC50 [5]: > 10000 nM
